Measured values: article PMC2213140 (The Journal of Experimental Medicine, 2005)

Tests used:
[1] = test system: 1G4 CTL clone with peptide-pulsed T2 target cells; assay type: cell-based; settings: 30 min at 37°C
[2] = test system: splenocytes from ESO 9V- or ESO 9C-immunized A2K^b mice; assay: Ex-vivo IFN-γ ELISPOT assay; assay type: cell-based, mouse; settings: reducing agent TCEP, unpublished data
[3] = test system: 1G4 CTL clone with peptide-pulsed T2 target cells; assay: Live cell video microscopy of CTL lytic granule polarization; assay type: cell-based; settings: T2 cells pulsed with 1 μM peptide
[4] = test system: Jurkat cells transfected with A2K^b cDNA; assay: In vitro killing assay with CTL from ESO 9V-immunized mice; assay type: cell-based
[5] = target: HLA-A2 loaded with the NY-ESO-1 157-165 analogue peptide …; assay: SPR
[6] = target: HLA-A2 loaded with the wild-type NY-ESO-1 157-165 peptide …; assay: SPR

SLLMWITQC [ESO 9C]
granule polarization [1]: polarization was poor
effect of TCEP on IFN-γ responses to ESO 9C peptide [2]: responses were enhanced in the presence of the reducing agent TCEP
rate of lytic granule polarization [3]: lytic granule polarization is slow
time from initial contact to granule polarization at the synapse ([3]; 1 h at 37°C, single CTL followed): ≤ 17 min
time without polarization of lytic granules toward either target ([3]; second CTL (red arrow)): > 22 min
lysis of peptide-loaded target cells by CTL from ESO 9V-immunized mice [4]: capable of lysing target cells loaded with wild-type ESO 9C peptide

soluble 1G4 TCR (NY-ESO-1 157-165-specific TCR from the 1G4 CTL clone)
Kd [5]: 5 µM
Kd [6]: 13.3 µM
